Source: US10272182B2, “Copolymer membrane for high-dose chemotherapy delivery during transarterial chemoembolization” (THE REGENTS OF THE UNIVERSITY OF CALIFORNIA, priority 2014, dated 2019)

Assay: Hepatic artery IAC infusion of dox in swine without CF device
Format: in vivo
Conditions: 50 mg dox (2 mg/mL) into the liver via hepatic artery over 10 minutes
Procedure: In vivo pilot experiments on swine were performed to establish an animal model and proof-of-concept for toxicity reduction. Farm swine (n=3, 30 kg) received humane care in compliance with the UCSF IACUC. Interventional procedures included anesthesia (Isoflurane), X-ray fluoroscopy, percutaneous transarterial catheterization of the hepatic artery, and percutaneous transveous catheterization of the vena cava. Heparin was […] in order to prevent thrombus formation. Heart rate, electrocardiogram, and O2-saturation were continuously monitored during the interventions. Animals were euthanized immediately after the procedures.
In the second animal, a CF device was not deployed, but rather a hepatic artery IAC infusion of dox was performed with subsequent sampling of blood at various times and positions throughout the venous system. This was performed in order to validate a hepatic dox IAC pharmacokinetic experimental model, measuring venous dox concentrations over time via a developed liquid chromatography-mass spectroscopy assay (Pacific Biolabs, Hercules, Calif.). In this animal, a microcatheter was advanced into the hepatic artery via standard access from a right femoral artery approach using fluoroscopy and contrast as needed. Via percutaneous UV access, central catheters were positioned with tips in the suprahepatic IVC and right hepatic vein. […]

COc1cccc2c1C(=O)c1c(O)c3c(c(O)c1C2=O)C[C@@](O)(C(=O)CO)C[C@@H]3O[C@H]1C[C@H](N)[C@H](O)[C@H](C)O1 [dox, doxorubicin]
hemodynamic changes during the procedure: no hemodynamic changes
